Measured values taken from patent publication US10729133B2, “Cornfield herbicidal composition and application thereof” (priority 2016, dated 2020).
Several values for one entry are separate records, joined by “and”; a condition that tells them apart may be missing. Identical values can stand only once.

Columns and labels:
Test in all cases: Pot-culture stem and leaf treatment, fresh weight inhibition (Gowing method)
Type in all cases: in vivo
[1] = system: Cirsium setosum
Description: (§1) Echinochloa crusgalli, Setaria viridis, Chenopodium album, Amaranthus retrollexus were collected from corn fields in Qingdao of Shandong Province. Sonchus brachyotus were collected from corn fields in Shenyang of Liaoning Province. Rhizoma Cyperi, Convolvulus arvensis were collected from corn fields in Shangqiu of Henan Province. Cirsium setosum were collected from corn fields in Xiantao of Hubei Province.
(§2) The above weeds were cultivated by a pot culture method. […] Full and uniform weed seeds were selected, soaked in warm water at 25° C. for 6 hours, and germinated in a 28° C. biochemical incubator (darkness). The weed seeds that had just germinated were evenly placed on the surface of the soil and then covered with 0.7 cm soil, and cultured in a controllable sunlight greenhouse after being treated with agents. A certain amount of water was added to the enamel pan regularly to keep the soil moist.
(§3) The culture was carried out in a controllable sunlight greenhouse at 18 to 30° C., in natural light, and relative humidity of 57% to 72%.
(§4) The technical materials were all dissolved in acetone, and diluted with an aqueous solution containing 0.1% emulsifier T-80. The dilution is performed as required.
(§5) 3 pots with 20 weed seeds per pot were treated in one treatment with […] per treatment, that is, a total of 60 weeds were treated in one treatment.
(§6) The agents were used for only once in the experiment. In the stage of weeds with 2 leaves and 1 core, the weeds were thinned out to maintain 15 weeds per pot and 45 weeds for each treatment, then continued to be cultured to 5-leaves and 1-core stage of Echinochloa crusgalli and Setaria viridis, and treated.
(§7) The well-cultured weeds were evenly placed on a platform with an area of 0.5 m^2, and a solution of agents was sprayed on the stems and leaves thereof by the 3WP-2000-type walking spray tower at a dosage of 30 kg/ha and at a spray pressure of 0.3 MPa. After all the solution was sprayed, the valve was closed. After 30 seconds, the door of the spray tower was opened, and the nutritional bowl was taken out. Then the valve was opened, and the spray tube was cleaned by spraying 50 ml of water.
(§8) A pot-culture method was employed. For the cultivation of weeds, please refer to the Section 1.1, and “Pesticide guidelines for laboratory bioactivity tests—herbicides”. As to a method for applying agents, please refer to the section 2.3.2, that is, a method for treating stems and leaves was employed.
(§9) A method for investigating absolute number was employed, wherein whole seedlings of survival weeds were cut off with a blade along the soil surface, and the fresh weight of the weeds was weighed with an analytical balance. For dead weeds, the fresh weight thereof was zero.
(§10) The investigation was performed after 20 days of the treatment for only once.
(§11) An optimum ratio of the two active ingredients was determined by the actual control effect, characteristics of herbicides, and balance of a corresponding formula.
(§12) Wherein, in the formula, X represented the fresh weight inhibition rate of A in a dosage of P, and Y represented the fresh weight inhibition rate of the active ingredient B in a dosage of Q.

[2] = system: Rhizoma Cyperi
Description: as §1, §2, §3, §4, §5, §6, §7, §8, §9, §10, §11, §12

[3] = system: Setaria viridis
Description: as §1, §2, §3, §4, §5, §6, §7, §8, §9, §10, §11, §12

[4] = system: Echinochloa crusgalli
Description: as §1, §2, §3, §4, §5, §6, §7, §8, §9, §10, §11, §12

[5] = system: Chenopodium album; conditions: for actual fresh weight inhibition rate (%): Chenopodium album
Description: as §1
(§13) The above weeds were cultivated by a pot culture method. […] Full and uniform weed seeds were selected, soaked in warm water at 25° C. for 6 hours, and germinated in a 28° C. biochemical incubator (darkness). […] A certain amount of water was added to the enamel pan regularly to keep the soil moist.
as §4, §5, §6, §7, §8, §9, §10, §12

[6] = system: Convolvulus arvensis
Description: as §1, §13, §4, §5, §6, §7, §8, §9, §10, §12

[7] = system: Amaranthus retrollexus; conditions: Amaranthus retroflexus
Description: as §1, §13, §4, §5, §6, §7, §8, §9, §10, §12

[8] = system: Sonchus brachyotus
Description: as §1, §13, §4, §5, §6, §7, §8, §9, §10, §12

[9] = dosage of active ingredient 45 g/hm^2
[10] = dosage of active ingredient 90 g/hm^2
[11] = dosage of active ingredient 180 g/hm^2
[12] = dosage of active ingredient 112.5 g/hm^2
[13] = dosage of active ingredient 225 g/hm^2
[14] = dosage of active ingredient 450 g/hm^2

CCn1ncc(C(=O)c2ccc(S(C)(=O)=O)c(COCC(F)(F)F)c2Cl)c1OC(=O)c1cn(C)nc1C [A1]
actual fresh weight inhibition rate ([1]; dosage 45 g/hm^2): 19.3%
actual fresh weight inhibition rate ([1]; dosage 90 g/hm^2): 20.4%
actual fresh weight inhibition rate ([1]; dosage 180 g/hm^2): 38.5%
actual fresh weight inhibition rate ([2]; dosage 45 g/hm^2): 22.8%
actual fresh weight inhibition rate ([2]; dosage 90 g/hm^2): 31.1%
actual fresh weight inhibition rate ([2]; dosage 180 g/hm^2): 44.2%
actual fresh weight inhibition rate ([3]; dosage 45 g/hm^2): 45.7% and 42.1% and 39.9%
actual fresh weight inhibition rate ([3]; dosage 90 g/hm^2): 81.6% and 80.3% and 81.2%
actual fresh weight inhibition rate ([3]; dosage 180 g/hm^2): 100%
actual fresh weight inhibition rate ([4]; dosage 45 g/hm^2): 54.2% and 42.4%
actual fresh weight inhibition rate ([4]; dosage 90 g/hm^2): 82.1% and 83.5%
actual fresh weight inhibition rate ([4]; dosage 180 g/hm^2): 100%
actual fresh weight inhibition rate (%) [5, 9]: 19.1%
actual fresh weight inhibition rate (%) [5, 10]: 30.2%
actual fresh weight inhibition rate (%) [5, 11]: 48.7%
actual fresh weight inhibition rate ([5]; dosage 45 g/hm^2): 19.1%
actual fresh weight inhibition rate ([5]; dosage 90 g/hm^2): 30.2%
actual fresh weight inhibition rate ([5]; dosage 180 g/hm^2): 48.7%
actual fresh weight inhibition rate ([6]; dosage 45 g/hm^2): 23.2%
actual fresh weight inhibition rate ([6]; dosage 90 g/hm^2): 38.9%
actual fresh weight inhibition rate ([6]; dosage 180 g/hm^2): 48.2%
actual fresh weight inhibition rate (%) [7, 9]: 45.7%
actual fresh weight inhibition rate (%) [7, 10]: 81.6%
actual fresh weight inhibition rate (%) [7, 11]: 100%
actual fresh weight inhibition rate ([8]; dosage 45 g/hm^2): 32.1%
actual fresh weight inhibition rate ([8]; dosage 90 g/hm^2): 53.2%
actual fresh weight inhibition rate ([8]; dosage 180 g/hm^2): 78.8%

CC(C)c1nn(C(=O)NC(C)(C)C)c(=O)n1N [amicarbazone]
actual fresh weight inhibition rate (%) [5, 12]: 36.5%
actual fresh weight inhibition rate (%) [5, 13]: 45.9%
actual fresh weight inhibition rate (%) [5, 14]: 64.3%
actual fresh weight inhibition rate (%) [7, 12]: 21.6%
actual fresh weight inhibition rate (%) [7, 13]: 31.9%
actual fresh weight inhibition rate (%) [7, 14]: 41.8%

CCNc1nc(Cl)nc(NC(C)C)n1 [atrazine]
actual fresh weight inhibition rate ([3]; dosage 375 g/hm^2): 21.3%
actual fresh weight inhibition rate ([3]; dosage 750 g/hm^2): 31.4%
actual fresh weight inhibition rate ([3]; dosage 1500 g/hm^2): 41.4%
actual fresh weight inhibition rate ([4]; dosage 375 g/hm^2): 20.3%
actual fresh weight inhibition rate ([4]; dosage 750 g/hm^2): 34.2%
actual fresh weight inhibition rate ([4]; dosage 1500 g/hm^2): 45.1%

CC(C)N1C(=O)c2ccccc2NS1(=O)=O [bentazone]
actual fresh weight inhibition rate ([2]; dosage 150 g/hm^2): 65.3%
actual fresh weight inhibition rate ([2]; dosage 300 g/hm^2): 83.5%
actual fresh weight inhibition rate ([2]; dosage 600 g/hm^2): 92.1%
actual fresh weight inhibition rate ([5]; dosage 150 g/hm^2): 56.5%
actual fresh weight inhibition rate ([5]; dosage 300 g/hm^2): 75.9%
actual fresh weight inhibition rate ([5]; dosage 600 g/hm^2): 94.3%

CCCCCCCC(=O)Oc1c(Br)cc(C#N)cc1Br [bromoxynil octanoate]
actual fresh weight inhibition rate ([6]; dosage 112.5 g/hm^2): 58.9%
actual fresh weight inhibition rate ([6]; dosage 225 g/hm^2): 79.2%
actual fresh weight inhibition rate ([6]; dosage 450 g/hm^2): 98.1%
actual fresh weight inhibition rate ([8]; dosage 112.5 g/hm^2): 56.2%
actual fresh weight inhibition rate ([8]; dosage 225 g/hm^2): 78.3%
actual fresh weight inhibition rate ([8]; dosage 450 g/hm^2): 99.2%

CCCCOCN(C(=O)CCl)c1c(CC)cccc1CC [butachlor]
actual fresh weight inhibition rate ([3]; dosage 375 g/hm^2): 2.7%
actual fresh weight inhibition rate ([3]; dosage 750 g/hm^2): 3.8%
actual fresh weight inhibition rate ([3]; dosage 1500 g/hm^2): 5.9%
actual fresh weight inhibition rate ([4]; dosage 375 g/hm^2): 2.4%
actual fresh weight inhibition rate ([4]; dosage 750 g/hm^2): 3.9%
actual fresh weight inhibition rate ([4]; dosage 1500 g/hm^2): 5.4%

COc1c(Cl)ccc(Cl)c1C(=O)O [dicamba]
actual fresh weight inhibition rate ([5]; dosage 75 g/hm^2): 66.2%
actual fresh weight inhibition rate ([5]; dosage 150 g/hm^2): 85.3%
actual fresh weight inhibition rate ([5]; dosage 300 g/hm^2): 100%
actual fresh weight inhibition rate ([6]; dosage 75 g/hm^2): 64.4%
actual fresh weight inhibition rate ([6]; dosage 150 g/hm^2): 78.9%
actual fresh weight inhibition rate ([6]; dosage 300 g/hm^2): 92.8%

O=C(Nc1ccc(F)cc1F)c1cccnc1Oc1cccc(C(F)(F)F)c1 [diflufenican]
actual fresh weight inhibition rate ([3]; dosage 75 g/hm^2): 3.9%
actual fresh weight inhibition rate ([3]; dosage 150 g/hm^2): 8.3%
actual fresh weight inhibition rate ([3]; dosage 300 g/hm^2): 10.5%
actual fresh weight inhibition rate ([4]; dosage 75 g/hm^2): 7.2%
actual fresh weight inhibition rate ([4]; dosage 150 g/hm^2): 9.4%
actual fresh weight inhibition rate ([4]; dosage 300 g/hm^2): 10.3%

Nc1c(Cl)c(F)nc(OCC(=O)O)c1Cl [fluroxypyr]
actual fresh weight inhibition rate ([1]; dosage 60 g/hm^2): 56.2%
actual fresh weight inhibition rate ([1]; dosage 120 g/hm^2): 79.2%
actual fresh weight inhibition rate ([1]; dosage 240 g/hm^2): 95.4%
actual fresh weight inhibition rate ([6]; dosage 60 g/hm^2): 63.2%
actual fresh weight inhibition rate ([6]; dosage 120 g/hm^2): 78.2%
actual fresh weight inhibition rate ([6]; dosage 240 g/hm^2): 92.2%

COC(=O)c1c(Cl)nn(C)c1S(=O)(=O)NC(=O)Nc1nc(OC)cc(OC)n1 [halosulfuron-methyl]
actual fresh weight inhibition rate ([2]; dosage 15 g/hm^2): 67.2%
actual fresh weight inhibition rate ([2]; dosage 30 g/hm^2): 89.3%
actual fresh weight inhibition rate ([2]; dosage 60 g/hm^2): 100%

CSc1nnc(C(C)(C)C)c(=O)n1N [metribuzin]
actual fresh weight inhibition rate ([3]; dosage 112.5 g/hm^2): 21.5%
actual fresh weight inhibition rate ([3]; dosage 225 g/hm^2): 33.6%
actual fresh weight inhibition rate ([3]; dosage 450 g/hm^2): 43.5%
actual fresh weight inhibition rate ([4]; dosage 112.5 g/hm^2): 22.4%
actual fresh weight inhibition rate ([4]; dosage 225 g/hm^2): 32.1%
actual fresh weight inhibition rate ([4]; dosage 450 g/hm^2): 42.5%

COc1cc(OC)nc(NC(=O)NS(=O)(=O)c2ncccc2C(=O)N(C)C)n1 [nicosulfuron]
actual fresh weight inhibition rate ([3]; dosage 15 g/hm^2): 45.7%
actual fresh weight inhibition rate ([3]; dosage 30 g/hm^2): 79.6%
actual fresh weight inhibition rate ([3]; dosage 60 g/hm^2): 100%
actual fresh weight inhibition rate ([4]; dosage 15 g/hm^2): 33.1%
actual fresh weight inhibition rate ([4]; dosage 30 g/hm^2): 74.5%
actual fresh weight inhibition rate ([4]; dosage 60 g/hm^2): 100%

CCc1cccc(C)c1N(C(=O)CCl)[C@@H](C)COC [s-metolachlor]
actual fresh weight inhibition rate ([3]; dosage 375 g/hm^2): 2.9%
actual fresh weight inhibition rate ([3]; dosage 750 g/hm^2): 3.9%
actual fresh weight inhibition rate ([3]; dosage 1500 g/hm^2): 6.2%
actual fresh weight inhibition rate ([4]; dosage 375 g/hm^2): 2.5%
actual fresh weight inhibition rate ([4]; dosage 750 g/hm^2): 3.4%
actual fresh weight inhibition rate ([4]; dosage 1500 g/hm^2): 5.6%

CCNc1nc(Cl)nc(NC(C)(C)C)n1 [terbuthylazine]
actual fresh weight inhibition rate ([3]; dosage 375 g/hm^2): 25.2%
actual fresh weight inhibition rate ([3]; dosage 750 g/hm^2): 30.6%
actual fresh weight inhibition rate ([3]; dosage 1500 g/hm^2): 42.3%
actual fresh weight inhibition rate ([4]; dosage 375 g/hm^2): 31.4%
actual fresh weight inhibition rate ([4]; dosage 750 g/hm^2): 42.1%
actual fresh weight inhibition rate ([4]; dosage 1500 g/hm^2): 51.7%
